Drawing on the supplement of paper PMC10307832, this text covers relative viability for five cell lines.

Assay in all cases: relative viability (nuclei count vs DMSO), 5 days (fraction); higher = more cells survive
Compound in experiment [1]: Cn1c(Nc2ccc(C(F)(F)F)cc2)nc2cc(Oc3ccnc(-c4ncc(C(F)(F)F)[nH]4)c3)ccc21 [RAF265] + COc1cc2c(Oc3ccc(NC(=O)C4(C(=O)Nc5ccc(F)cc5)CC4)cc3F)ccnc2cc1OCCCN1CCOCC1 [Foretinib] (partner 0.25 µM)
The method, boiled down: (§1)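 The day after seeding in 1536-well plates, lung cancer cell lines were treated by pin tool with a single drug, or with a fixed anchor-drug dose together with five library-drug doses (not always all listed) in √10 steps. After 5 days, a combined fix-and-stain solution (final 0.05% Triton X-100, 1% formaldehyde, 1 ug/ml Hoechst) was added. Nuclei counted on 4× images gave relative viability as treated counts over vehicle counts, reported as the median of duplicate plates.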

Compound in experiment [2]: C1=CC=C2C(=C1)C=CC(=C2SSC3=C(C=CC4=CC=CC=C43)O)O [IPA-3] + COc1cccc2cc(-c3nc([C@H]4CC[C@H](C(=O)O)CC4)n4ncnc(N)c34)[nH]c12 [OSI-027] (partner 0.5 µM)
Summed up:
as §1

Compound in experiment [3]: C1=CC=C2C(=C1)C=CC(=C2SSC3=C(C=CC4=CC=CC=C43)O)O [IPA-3] + Nc1ncn([C@H]2C[C@H](O)[C@@H](CO)O2)c(=O)n1 [Decitabine] (partner 2 µM)
Summed up: as §1

Compound in experiment [4]: Cc1ccc(-n2nc(C(C)(C)C)cc2NC(=O)Nc2ccc(OCCN3CCOCC3)c3ccccc23)cc1 [Doramapimod] + Nc1ncn([C@H]2C[C@H](O)[C@@H](CO)O2)c(=O)n1 [Decitabine] (partner 2 µM)
The method, boiled down: as §1

Turning to 201T, the relative viability was 1.1 in experiment [1] (first compound 0.01 µM); 1.1 in experiment [1] (first compound 0.03162 µM); 1.09 in experiment [1] (first compound 0.1 µM); 1.21 in experiment [1] (first compound 0.3162 µM); 0.945 in experiment [1] (first compound 1 µM); 0.741 in experiment [2] (first compound 0.2 µM). Moreover, the relative viability was found to be 0.683 in experiment [2] (first compound 0.6325 µM); 0.743 in experiment [2] (first compound 6.325 µM); 0.755 in experiment [2] (first compound 20 µM); 0.888 in experiment [3] (first compound 0.2 µM); 0.861 in experiment [3] (first compound 0.6325 µM); 0.839 in experiment [3] (first compound 2 µM). Moreover, the relative viability in experiment [3] (first compound 6.325 µM) came to 0.868; in experiment [3] (first compound 20 µM), 0.947; in experiment [4] (first compound 0.02 µM), 0.857; in experiment [4] (first compound 0.06325 µM) it was 0.863; in experiment [4] (first compound 0.2 µM), 0.886; in experiment [4] (first compound 0.6325 µM) it was 0.921. Moreover, the relative viability in experiment [4] (first compound 2 µM) amounted to 0.925.

On to A549, for which the relative viability in experiment [1] (first compound 0.01 µM) was found to be 0.927; in experiment [1] (first compound 0.03162 µM), 0.928; in experiment [1] (first compound 0.1 µM), 0.988; in experiment [1] (first compound 0.3162 µM), 0.557; in experiment [1] (first compound 1 µM), 0.481; in experiment [3] (first compound 0.2 µM), 0.379. For the same cell line, the relative viability in experiment [3] (first compound 0.6325 µM) came out at 0.278; in experiment [3] (first compound 2 µM) it was 0.128; in experiment [3] (first compound 6.325 µM), 0.274; in experiment [3] (first compound 20 µM), 0.179; in experiment [4] (first compound 0.02 µM) it was 0.235; in experiment [4] (first compound 0.06325 µM), 0.309. Also, the values for the relative viability in experiment [4] (first compound 0.2 µM), in experiment [4] (first compound 0.6325 µM) and in experiment [4] (first compound 2 µM) were 0.312, 0.175 and 0.278, respectively.

With A-427, the relative viability in experiment [1] (first compound 0.01 µM) was determined as 1.12; in experiment [1] (first compound 0.03162 µM), 0.962; in experiment [1] (first compound 0.1 µM), 0.846; in experiment [1] (first compound 0.3162 µM), 0.26; in experiment [1] (first compound 1 µM), 0.204; in experiment [2] (first compound 0.2 µM), 0.432. In addition, the relative viability in experiment [2] (first compound 0.6325 µM) turned out to be 0.438; in experiment [2] (first compound 2 µM), 0.491; in experiment [2] (first compound 6.325 µM), 0.388; in experiment [2] (first compound 20 µM), 0.451; in experiment [3] (first compound 0.2 µM) it was 0.571; in experiment [3] (first compound 0.6325 µM), 0.576. The relative viability in experiment [3] (first compound 2 µM) stood at 0.547; in experiment [3] (first compound 6.325 µM), 0.544; in experiment [3] (first compound 20 µM), 0.63; in experiment [4] (first compound 0.02 µM) it was 0.588; in experiment [4] (first compound 0.06325 µM) it was 0.557; in experiment [4] (first compound 0.2 µM), 0.536. Also, the relative viability in experiment [4] (first compound 2 µM) turned out to be 0.541.

Regarding ABC-1, the relative viability in experiment [1] (first compound 0.01 µM) was 1.16; in experiment [1] (first compound 0.03162 µM), 1.15; in experiment [1] (first compound 0.1 µM), 1.2; in experiment [1] (first compound 0.3162 µM), 1.08; in experiment [1] (first compound 1 µM), 0.514; in experiment [2] (first compound 0.2 µM), 0.55. Also, the relative viability was 0.426 in experiment [2] (first compound 0.6325 µM); 0.457 in experiment [2] (first compound 2 µM); 0.564 in experiment [2] (first compound 6.325 µM); 0.567 in experiment [2] (first compound 20 µM); 1.35 in experiment [3] (first compound 0.2 µM); 1.02 in experiment [3] (first compound 0.6325 µM). In addition, the relative viability in experiment [3] (first compound 2 µM) came to 1.33; in experiment [3] (first compound 6.325 µM), 0.99; in experiment [3] (first compound 20 µM) it was 1.26; in experiment [4] (first compound 0.02 µM), 1; in experiment [4] (first compound 0.06325 µM), 1.19; in experiment [4] (first compound 0.2 µM), 0.983. Besides, the relative viability in experiment [4] (first compound 0.6325 µM) was found to be 0.959; in experiment [4] (first compound 2 µM), 1.01.

With BEN, the relative viability is 0.665 in experiment [1] (first compound 0.01 µM); 0.776 in experiment [1] (first compound 0.03162 µM); 0.701 in experiment [1] (first compound 0.1 µM); 0.664 in experiment [1] (first compound 0.3162 µM); 0.568 in experiment [1] (first compound 1 µM); 0.309 in experiment [2] (first compound 0.2 µM). Further, the relative viability in experiment [2] (first compound 0.6325 µM) is 0.295; in experiment [2] (first compound 2 µM) it was 0.288; in experiment [2] (first compound 6.325 µM), 0.302; in experiment [2] (first compound 20 µM), 0.333; in experiment [3] (first compound 0.2 µM) it was 0.612; in experiment [3] (first compound 0.6325 µM), 0.824. In addition, the relative viability in experiment [3] (first compound 2 µM) stood at 0.758; in experiment [3] (first compound 6.325 µM), 0.712; in experiment [3] (first compound 20 µM), 0.665; in experiment [4] (first compound 0.02 µM) it was 0.69; in experiment [4] (first compound 0.06325 µM), 0.769; in experiment [4] (first compound 0.2 µM), 0.799. Besides, the relative viability worked out at 0.512 in experiment [4] (first compound 0.6325 µM) and 0.675 in experiment [4] (first compound 2 µM).
